From ChEMBL document CHEMBL3885881, “DrugMatrix”

Organism: Rattus norvegicus
Assay: DrugMatrix - Regimen: Daily Repeat
Format: toxicity, organism-based, Sprague-Dawley
Parameters: regimen Daily Repeat, gender Male, age 6-8 weeks
Settings: in vivo, po, route oral GAVAGE, vehicle .5 % CMC; for ABSOLUTE BASOPHIL / ABSOLUTE EOSINOPHIL / ABSOLUTE LYMPHOCYTE / ABSOLUTE MONOCYTE / ABSOLUTE SEGMENTED NEUTROPHIL / BASOPHIL / EOSINOPHIL / ERYTHROCYTE COUNT / HEMATOCRIT / HEMOGLOBIN / LEUKOCYTE COUNT / LYMPHOCYTE / MEAN CORPUSCULAR HEMOGLOBIN / MEAN CORPUSCULAR HEMOGLOBIN CONCENTRATION / MEAN CORPUSCULAR VOLUME / MONOCYTE / NEUTROPHIL / NUCLEATED RED BLOOD CELLS / PLATELET COUNT: tissue Blood; for ALANINE AMINOTRANSFERASE / ALBUMIN / ALKALINE PHOSPHATASE / ASPARTATE AMINOTRANSFERASE / BLOOD UREA NITROGEN / CARBON DIOXIDE / CHLORIDE / CHOLESTEROL / CREATINE PHOSPHOKINASE / CREATININE / GLUCOSE / LACTATE DEHYDROGENASE / LIPASE / PHOSPHORUS / POTASSIUM / SODIUM / TOTAL BILIRUBIN / TOTAL PROTEIN / URIC ACID: tissue Plasma
[1] = 0 mg/kg, 72 h, dose level Control, time 3 day
[2] = 0 mg/kg, 120 h, dose level Control, time 5 day
[3] = 29 mg/kg, 72 h, dose level Low, time 3 day

With NC(=O)NC(=O)Cc1ccccc1 [PHENACEMIDE] the “ABSOLUTE BASOPHIL” value [1] was 0 CELLS/uL, the “ABSOLUTE EOSINOPHIL” value [1] was 15.17 CELLS/uL and the “ABSOLUTE LYMPHOCYTE” value [1] was 10149.83 CELLS/uL. For the same compound, the “ABSOLUTE MONOCYTE” value [1] was 193.33 CELLS/uL, the “ABSOLUTE SEGMENTED NEUTROPHIL” value [1] was 1575 CELLS/uL and the BASOPHIL [1] was 0%. The EOSINOPHIL [1] was 0.17%, the “ERYTHROCYTE COUNT” value [1] was 5.53 x10E6/uL and the HEMATOCRIT [1] was 34.7%. The HEMOGLOBIN [1] was 12.78 G/DL, the “LEUKOCYTE COUNT” value [1] was 11.93 x10E3/uL and the LYMPHOCYTE [1] was 85.5%. For the same compound, the “MEAN CORPUSCULAR HEMOGLOBIN” value [1] was 23.15 pg, the “MEAN CORPUSCULAR HEMOGLOBIN CONCENTRATION” value [1] was 36.9 G/DL and the “MEAN CORPUSCULAR VOLUME” value [1] was 62.82 fL. For the same compound, the MONOCYTE [1] was 1.5%, the NEUTROPHIL [1] was 12.83% and the “NUCLEATED RED BLOOD CELLS” value [1] was 0.5 /100WBC. For the same compound, the “PLATELET COUNT” value [1] was 994.17 x10E3/uL, the “ALANINE AMINOTRANSFERASE” value [1] was 48.17 u/L and the ALBUMIN [1] was 4.37 G/DL. For the same compound, the “ALKALINE PHOSPHATASE” value [1] was 436.5 u/L, the “ASPARTATE AMINOTRANSFERASE” value [1] was 83.17 u/L and the “BLOOD UREA NITROGEN” value [1] was 14.67 mg/dL. For the same compound, the “CARBON DIOXIDE” value [1] was 30.83 mmol/L, the CHLORIDE [1] was 99.17 MEQ/L and the CHOLESTEROL [1] was 86.33 mg/dL. For the same compound, the “CREATINE PHOSPHOKINASE” value [1] was 243.33 u/L, the CREATININE [1] was 0.25 mg/dL and the GLUCOSE [1] was 158 mg/dL. For the same compound, the “LACTATE DEHYDROGENASE” value [1] was 262.33 u/L, the LIPASE [1] was 11 u/L and the PHOSPHORUS [1] was 12.07 mg/dL. The POTASSIUM [1] was 6.52 MEQ/L, the SODIUM [1] was 142.45 MEQ/L and the “TOTAL BILIRUBIN” value [1] was 0.17 mg/dL. The “TOTAL PROTEIN” value [1] was 6.25 G/DL, the “URIC ACID” value [1] was 1.42 mg/dL and the “ABSOLUTE BASOPHIL” value [2] was 0 CELLS/uL. For the same compound, the “ABSOLUTE EOSINOPHIL” value [2] was 0 CELLS/uL, the “ABSOLUTE LYMPHOCYTE” value [2] was 10076.67 CELLS/uL and the “ABSOLUTE MONOCYTE” value [2] was 124 CELLS/uL. For the same compound, the “ABSOLUTE SEGMENTED NEUTROPHIL” value [2] was 966 CELLS/uL, the BASOPHIL [2] was 0% and the EOSINOPHIL [2] was 0%. The “ERYTHROCYTE COUNT” value [2] was 5.57 x10E6/uL, the HEMATOCRIT [2] was 33.37% and the HEMOGLOBIN [2] was 12.73 G/DL. The “LEUKOCYTE COUNT” value [2] was 11.17 x10E3/uL, the LYMPHOCYTE [2] was 90.33% and the “MEAN CORPUSCULAR HEMOGLOBIN” value [2] was 22.9 pg. The “MEAN CORPUSCULAR HEMOGLOBIN CONCENTRATION” value [2] was 38.18 G/DL, the “MEAN CORPUSCULAR VOLUME” value [2] was 59.97 fL and the MONOCYTE [2] was 1%. For the same compound, the NEUTROPHIL [2] was 8.67%, the “NUCLEATED RED BLOOD CELLS” value [2] was 0 /100WBC and the “PLATELET COUNT” value [2] was 1078 x10E3/uL. The “ALANINE AMINOTRANSFERASE” value [2] was 37.17 u/L, the ALBUMIN [2] was 4.2 G/DL and the “ALKALINE PHOSPHATASE” value [2] was 322.17 u/L. For the same compound, the “ASPARTATE AMINOTRANSFERASE” value [2] was 67.67 u/L, the “BLOOD UREA NITROGEN” value [2] was 14 mg/dL and the “CARBON DIOXIDE” value [2] was 27.67 mmol/L. For the same compound, the CHLORIDE [2] was 102.17 MEQ/L, the CHOLESTEROL [2] was 67.67 mg/dL and the “CREATINE PHOSPHOKINASE” value [2] was 171.83 u/L. The CREATININE [2] was 0.27 mg/dL, the GLUCOSE [2] was 172 mg/dL and the “LACTATE DEHYDROGENASE” value [2] was 85.33 u/L. The LIPASE [2] was 8.67 u/L, the PHOSPHORUS [2] was 12 mg/dL and the POTASSIUM [2] was 6.09 MEQ/L. The SODIUM [2] was 144.82 MEQ/L, the “TOTAL BILIRUBIN” value [2] was 0.13 mg/dL and the “TOTAL PROTEIN” value [2] was 6.07 G/DL. For the same compound, the “URIC ACID” value [2] was 2.13 mg/dL, the “ABSOLUTE BASOPHIL” value [3] was 0 CELLS/uL and the “ABSOLUTE EOSINOPHIL” value [3] was 0 CELLS/uL. The “ABSOLUTE LYMPHOCYTE” value [3] was 6638.67 CELLS/uL, the “ABSOLUTE MONOCYTE” value [3] was 81.67 CELLS/uL and the “ABSOLUTE SEGMENTED NEUTROPHIL” value [3] was 1179.67 CELLS/uL. The BASOPHIL [3] was 0%, the EOSINOPHIL [3] was 0% and the “ERYTHROCYTE COUNT” value [3] was 4.84 x10E6/uL. The HEMATOCRIT [3] was 29.67%, the HEMOGLOBIN [3] was 11.57 G/DL and the “LEUKOCYTE COUNT” value [3] was 7.9 x10E3/uL. The LYMPHOCYTE [3] was 84%, the “MEAN CORPUSCULAR HEMOGLOBIN” value [3] was 23.9 pg and the “MEAN CORPUSCULAR HEMOGLOBIN CONCENTRATION” value [3] was 39 G/DL. The “MEAN CORPUSCULAR VOLUME” value [3] was 61.37 fL, the MONOCYTE [3] was 1% and the NEUTROPHIL [3] was 15%. The “NUCLEATED RED BLOOD CELLS” value [3] was 0.67 /100WBC, the “PLATELET COUNT” value [3] was 982 x10E3/uL and the “ALANINE AMINOTRANSFERASE” value [3] was 51 u/L. The ALBUMIN [3] was 4.1 G/DL, the “ALKALINE PHOSPHATASE” value [3] was 430.67 u/L and the “ASPARTATE AMINOTRANSFERASE” value [3] was 87.33 u/L. The “BLOOD UREA NITROGEN” value [3] was 15.67 mg/dL, the “CARBON DIOXIDE” value [3] was 30 mmol/L and the CHLORIDE [3] was 101 MEQ/L. The CHOLESTEROL [3] was 78.67 mg/dL, the “CREATINE PHOSPHOKINASE” value [3] was 358 u/L and the CREATININE [3] was 0.27 mg/dL. The GLUCOSE [3] was 152.67 mg/dL, the “LACTATE DEHYDROGENASE” value [3] was 97 u/L and the LIPASE [3] was 9.67 u/L. The PHOSPHORUS [3] was 12.5 mg/dL, the POTASSIUM [3] was 6.3 MEQ/L and the SODIUM [3] was 145.1 MEQ/L. For the same compound, the “TOTAL BILIRUBIN” value [3] was 0.13 mg/dL, the “TOTAL PROTEIN” value [3] was 5.83 G/DL and the “URIC ACID” value [3] was 0.97 mg/dL.
